{
  "source": "paper PMC6019444",
  "about": "“Activation of the Immune-Metabolic Receptor GPR84 Enhances Inflammation and Phagocytosis in Macrophages” (Frontiers in Immunology, 2018)",
  "target": "GPR84 (Mus musculus, UniProt Q8CIM5)",
  "sequence (Q8CIM5 whole entry)": "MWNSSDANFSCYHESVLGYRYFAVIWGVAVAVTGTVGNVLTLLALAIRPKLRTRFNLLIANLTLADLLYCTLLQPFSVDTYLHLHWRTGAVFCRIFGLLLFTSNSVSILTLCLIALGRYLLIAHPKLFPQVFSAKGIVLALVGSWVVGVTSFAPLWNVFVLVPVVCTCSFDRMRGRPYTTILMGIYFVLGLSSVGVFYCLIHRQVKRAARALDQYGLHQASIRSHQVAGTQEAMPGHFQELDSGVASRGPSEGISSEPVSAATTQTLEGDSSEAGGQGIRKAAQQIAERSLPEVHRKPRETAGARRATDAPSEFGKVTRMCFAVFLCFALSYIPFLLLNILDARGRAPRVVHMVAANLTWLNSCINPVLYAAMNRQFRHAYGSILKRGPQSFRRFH",
  "test": "real-time cell impedance in LPS-primed mouse BMDMs, WT versus GPR84-/-",
  "assay_type": "cell-based",
  "data": [
    {"compound": "CCCCCCCCNc1cc(=O)[nH]c(=O)[nH]1", "note": "[6-OAU, 6-(octylamino) pyrimidine-2,4(1H,3H)-dione]", "values": [
      {"measurement": "real-time cell impedance in LPS-primed mouse BMDMs, WT versus GPR84-/-", "value": "no response was observed when adding any dose of 6-OAU to GPR84^−/− cells"}
    ]}
  ]
}
